From patent publication US10913727B2, “Modulators of the integrated stress pathway” (Calico Life Sciences LLC, priority 2016, dated 2021)
pEC50: −log10 of the molar value.

Test system: HEK293T cells carrying the ATF4 luciferase reporter
Assay: ATF4-Luc assay, in vitro model of Vanishing Cell White Matter Disease (VWMD)
Type: cell-based
Settings: Homo sapiens, HEK-293T, 1 μg/mL tunicamycin, 7 hours, One Glo luminescence
Method in brief: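 Compound at 200 nM and tunicamycin at 1 μg/mL were given together for 7 h to HEK293T cells stably transduced with an ATF4 5′-UTR-driven firefly luciferase reporter. Read-out by luminescence, reported as EC50.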

Compound	pEC50
O=C(COc1ccc(Cl)c(F)c1)NC12CC(NC(=O)c3ccc(-n4cncn4)cc3)(C1)C2 [Compound 783, N-{3-[2-(4-chloro-3-fluorophenoxy)acetamido]bicyclo[1.1.1]pentan-1-yl}-4-(1H-1,2,4-triazol-1-yl)benzamide]	< 5.70
Cc1ncc(C(=O)NC23CC(NC(=O)COc4ccc(Cl)c(F)c4)(C2)C3)c(C)n1 [Compound 784, N-{3-[2-(4-chloro-3-fluorophenoxy)acetamido]bicyclo[1.1.1]pentan-1-yl}-2,4-dimethylpyrimidine-5-carboxamide]	< 5.70
Cn1nnc2cc(C(=O)NC34CC(NC(=O)COc5ccc(Cl)c(F)c5)(C3)C4)ccc21 [Compound 785, N-{3-[2-(4-chloro-3-fluorophenoxy)acetamido]bicyclo[1.1.1]pentan-1-yl}-1-methyl-1H-benzotriazole-5-carboxamide]	< 5.70
Cn1ncc2cccc(C(=O)NC34CC(NC(=O)COc5ccc(Cl)c(F)c5)(C3)C4)c21 [Compound 786, N-{3-[2-(4-chloro-3-fluorophenoxy)acetamido]bicyclo[1.1.1]pentan-1-yl}-1-methyl-1H-indazole-7-carboxamide]	< 5.70
Cc1ccc2nc(C(=O)NC34CC(NC(=O)COc5ccc(Cl)c(F)c5)(C3)C4)cn2c1 [Compound 787, N-{3-[2-(4-chloro-3-fluorophenoxy)acetamido]bicyclo[1.1.1]pentan-1-yl}-6-methylimidazo[1,2-a]pyridine-2-carboxamide]	< 5.70
COc1cc(C(=O)NC23CC(NC(=O)COc4ccc(Cl)c(F)c4)(C2)C3)c(OC)nn1 [Compound 788, N-{3-[2-(4-chloro-3-fluorophenoxy)acetamido]bicyclo[1.1.1]pentan-1-yl}-3,6-dimethoxypyridazine-4-carboxamide]	< 5.70
Cn1nc(C(=O)NC23CC(NC(=O)COc4ccc(Cl)c(F)c4)(C2)C3)cc1C(F)(F)F [Compound 789, N-{3-[2-(4-chloro-3-fluorophenoxy)acetamido]bicyclo[1.1.1]pentan-1-yl}-1-methyl-5-(trifluoromethyl)-1H-pyrazole-3-carboxamide]	6.60 to 7.30
COc1cncc(C(=O)NC23CC(NC(=O)COc4ccc(Cl)c(F)c4)(C2)C3)c1 [Compound 790, N-{3-[2-(4-chloro-3-fluorophenoxy)acetamido]bicyclo[1.1.1]pentan-1-yl}-5-methoxypyridine-3-carboxamide]	6.60 to 7.30
Cc1noc2ncc(C(=O)NC34CC(NC(=O)COc5ccc(Cl)c(F)c5)(C3)C4)cc12 [Compound 791, N-{3-[2-(4-chloro-3-fluorophenoxy)acetamido]bicyclo[1.1.1]pentan-1-yl}-3-methyl[1,2]oxazolo[5,4-b]pyridine-5-carboxamide]	< 5.70
O=C(COc1ccc(Cl)c(F)c1)NC12CC(NC(=O)c3cncc(F)c3)(C1)C2 [Compound 792, N-{3-[2-(4-chloro-3-fluorophenoxy)acetamido]bicyclo[1.1.1]pentan-1-yl}-5-fluoropyridine-3-carboxamide]	6.00 to 6.60
O=C(COc1ccc(Cl)c(F)c1)NC12CC(NC(=O)c3ncccn3)(C1)C2 [Compound 793, N-{3-[2-(4-chloro-3-fluorophenoxy)acetamido]bicyclo[1.1.1]pentan-1-yl}pyrimidine-2-carboxamide]	6.00 to 6.60
O=C1COc2cc(C(=O)NC34CC(NC(=O)COc5ccc(Cl)c(F)c5)(C3)C4)ccc2N1 [Compound 794, N-{3-[2-(4-chloro-3-fluorophenoxy)acetamido]bicyclo[1.1.1]pentan-1-yl}-3-oxo-3,4-dihydro-2H-1,4-benzoxazine-7-carboxamide]	< 5.70
Cc1nc(C(=O)NC23CC(NC(=O)COc4ccc(Cl)c(F)c4)(C2)C3)c(C)o1 [Compound 795, N-{3-[2-(4-chloro-3-fluorophenoxy)acetamido]bicyclo[1.1.1]pentan-1-yl}-2,5-dimethyl-1,3-oxazole-4-carboxamide]	< 5.70
O=C(COc1ccc(Cl)c(F)c1)NC12CC(NC(=O)c3sccc3F)(C1)C2 [Compound 796, N-{3-[2-(4-chloro-3-fluorophenoxy)acetamido]bicyclo[1.1.1]pentan-1-yl}-3-fluorothiophene-2-carboxamide]	< 5.70
O=C(COc1ccc(Cl)c(F)c1)NC12CC(NC(=O)c3ccc4nsnc4c3)(C1)C2 [Compound 797, N-{3-[2-(4-chloro-3-fluorophenoxy)acetamido]bicyclo[1.1.1]pentan-1-yl}-2,1,3-benzothiadiazole-5-carboxamide]	< 5.70
O=C(COc1ccc(Cl)c(F)c1)NC12CC(NC(=O)c3cc4cccnc4s3)(C1)C2 [Compound 798, N-{3-[2-(4-chloro-3-fluorophenoxy)acetamido]bicyclo[1.1.1]pentan-1-yl}thieno[2,3-b]pyridine-2-carboxamide]	< 5.70
O=C(COc1ccc(Cl)c(F)c1)NC12CC(NC(=O)c3cn4ccsc4n3)(C1)C2 [Compound 799, N-{3-[2-(4-chloro-3-fluorophenoxy)acetamido]bicyclo[1.1.1]pentan-1-yl}imidazo[2,1-b][1,3]thiazole-6-carboxamide]	< 5.70

Compound	pEC50
O=C(COc1ccc(Cl)c(F)c1)NC12CC(NC(=O)c3ccc4snnc4c3)(C1)C2 [Compound 800, N-{3-[2-(4-chloro-3-fluorophenoxy)acetamido]bicyclo[1.1.1]pentan-1-yl}-1,2,3-benzothiadiazole-5-carboxamide]	< 5.70
O=C(COc1ccc(Cl)c(F)c1)NC12CC(NC(=O)c3ccc4ocnc4c3)(C1)C2 [Compound 801, N-{3-[2-(4-chloro-3-fluorophenoxy)acetamido]bicyclo[1.1.1]pentan-1-yl}-1,3-benzoxazole-5-carboxamide]	< 5.70
O=C(COc1ccc(Cl)c(F)c1)NC12CC(NC(=O)c3cnn(-c4ccccn4)c3)(C1)C2 [Compound 802, N-{3-[2-(4-chloro-3-fluorophenoxy)acetamido]bicyclo[1.1.1]pentan-1-yl}-1-(pyridin-2-yl)-1H-pyrazole-4-carboxamide]	< 5.70
O=C(COc1ccc(Cl)c(F)c1)NC12CC(NC(=O)c3cccc4nsnc34)(C1)C2 [Compound 803, N-{3-[2-(4-chloro-3-fluorophenoxy)acetamido]bicyclo[1.1.1]pentan-1-yl}-2,1,3-benzothiadiazole-4-carboxamide]	< 5.70
Cc1onc(-c2ccccn2)c1C(=O)NC12CC(NC(=O)COc3ccc(Cl)c(F)c3)(C1)C2 [Compound 804, N-{3-[2-(4-chloro-3-fluorophenoxy)acetamido]bicyclo[1.1.1]pentan-1-yl}-5-methyl-3-(pyridin-2-yl)-1,2-oxazole-4-carboxamide]	< 5.70
CC(=O)Nc1ccc(C(=O)NC23CC(NC(=O)COc4ccc(Cl)c(F)c4)(C2)C3)cn1 [Compound 805, 6-acetamido-N-{3-[2-(4-chloro-3-fluorophenoxy)acetamido]bicyclo[1.1.1]pentan-1-yl}pyridine-3-carboxamide]	< 5.70
Cc1cnc2c(C(=O)NC34CC(NC(=O)COc5ccc(Cl)c(F)c5)(C3)C4)cnn2c1 [Compound 806, N-{3-[2-(4-chloro-3-fluorophenoxy)acetamido]bicyclo[1.1.1]pentan-1-yl}-6-methylpyrazolo[1,5-a]pyrimidine-3-carboxamide]	< 5.70
O=C(COc1ccc(Cl)c(F)c1)NC12CC(NC(=O)c3cccnc3-n3cccn3)(C1)C2 [Compound 807, N-{3-[2-(4-chloro-3-fluorophenoxy)acetamido]bicyclo[1.1.1]pentan-1-yl}-2-(1H-pyrazol-1-yl)pyridine-3-carboxamide]	< 5.70
Cc1ccn2cc(C(=O)NC34CC(NC(=O)COc5ccc(Cl)c(F)c5)(C3)C4)nc2c1 [Compound 808, N-{3-[2-(4-chloro-3-fluorophenoxy)acetamido]bicyclo[1.1.1]pentan-1-yl}-7-methylimidazo[1,2-a]pyridine-2-carboxamide]	< 5.70
COc1ncccc1C(=O)NC12CC(NC(=O)COc3ccc(Cl)c(F)c3)(C1)C2 [Compound 809, N-{3-[2-(4-chloro-3-fluorophenoxy)acetamido]bicyclo[1.1.1]pentan-1-yl}-2-methoxypyridine-3-carboxamide]	< 5.70
Cc1nc2cc(C(=O)NC34CC(NC(=O)COc5ccc(Cl)c(F)c5)(C3)C4)ccc2n1C [Compound 810, N-{3-[2-(4-chloro-3-fluorophenoxy)acetamido]bicyclo[1.1.1]pentan-1-yl}-1,2-dimethyl-1H-benzimidazole-5-carboxamide]	< 5.70
O=C(COc1ccc(Cl)c(F)c1)NC12CC(NC(=O)c3ccc4nccn4c3)(C1)C2 [Compound 811, N-{3-[2-(4-chloro-3-fluorophenoxy)acetamido]bicyclo[1.1.1]pentan-1-yl}imidazo[1,2-a]pyridine-6-carboxamide]	< 5.70
O=C(COc1ccc(Cl)c(F)c1)NC12CC(NC(=O)c3cnc(O)[nH]3)(C1)C2 [Compound 812, N-{3-[2-(4-chloro-3-fluorophenoxy)acetamido]bicyclo[1.1.1]pentan-1-yl}-2-hydroxy-1H-imidazole-5-carboxamide]	5.70 to 6.00
CS(=O)(=O)c1cccc(C(=O)NC23CC(NC(=O)COc4ccc(Cl)c(F)c4)(C2)C3)c1 [Compound 813, N-{3-[2-(4-chloro-3-fluorophenoxy)acetamido]bicyclo[1.1.1]pentan-1-yl}-3-(methanesulfonyl)benzamide]	< 5.70
Cc1cnccc1C(=O)NC12CC(NC(=O)COc3ccc(Cl)c(F)c3)(C1)C2 [Compound 814, N-{3-[2-(4-chloro-3-fluorophenoxy)acetamido]bicyclo[1.1.1]pentan-1-yl}-3-methylpyridine-4-carboxamide]	< 5.70
Cc1cc(C)c(C(=O)NC23CC(NC(=O)COc4ccc(Cl)c(F)c4)(C2)C3)cn1 [Compound 815, N-{3-[2-(4-chloro-3-fluorophenoxy)acetamido]bicyclo[1.1.1]pentan-1-yl}-4,6-dimethylpyridine-3-carboxamide]	< 5.70
CC(=O)Nc1ccc(C(=O)NC23CC(NC(=O)COc4ccc(Cl)c(F)c4)(C2)C3)cc1 [Compound 816, 4-acetamido-N-{3-[2-(4-chloro-3-fluorophenoxy)acetamido]bicyclo[1.1.1]pentan-1-yl}benzamide]	< 5.70
